Measurements reported in patent US4041158A, “O-alkyl-0-[1-(3-nitrophenyl)-2-carbalkoxy-vinyl ]-thiono(thiol)-phosphoric (phosphonic) acid esters” (priority 1974, dated 1977).
Where two headings read alike, the source gives them in different places.

How the values were obtained:
Myzus persicae = test: Myzus test (long-term action after spraying); type: in vivo; conditions: 0.05% active compound, Brassica oleracea
Description: (§1) Solvent: 3 parts by weight of acetone
(§2) Emulsifier: 1 part by weight of alkylaryl polyglycol ether
(§3) To produce a suitable preparation of active compound, 1 part by weight of the active compound was mixed with the stated amount of solvent containing the stated amount of emulsifier and the concentrate was diluted with water to the desired concentration.
(§4) Cabbage plants (Brassica oleracea), which were about 10-15 cm high, were sprayed with the preparation of the active compound until dripping wet.
After the specified periods of time, the plants were infested with aphids (Myzus persicae). After intervals of 3 days, the destruction in % was determined. 100% means that all aphids had been killed whereas 0% means that none of the aphids had been killed.

Laphygma exigua = test: Laphygma test; type: in vivo
Description: as §1, §2
To produce a suitable preparation of active compound, 1 part by weight of the active compound was mixed with the stated amount of solvent and the stated amount of emulsifier and the concentrate was diluted with water to the desired concentration.
Cotton leaves (Gossypium hirsutum) were sprayed with the preparation of the active compound until dew-moist and were then infested with caterpillars of the owlet moth (Laphygma exigua).
After the specified periods of time, the destruction in % was determined.

Toxicity test/peroral = conditions: in vivo, po; albino rat, peroral; evaluation after 7 days
Description: Test animal: Albino rat (Rattus norvegicus)
To produce a suitable preparation of active compound, 3 parts by weight of active compound were mixed with 2.8 parts by weight of highly-dispersed silica and 4.2 parts by weight of talc. Suspensions which contain, in 1 ml of liquid, the amount of active compound to be applied per 100 g of animal weight, were prepared from the above active compound concentrate, with a little added powdered vegetable gum, by grinding with water. Dosing was effected volumetrically after weighing the test animals. A steel knob-ended probe was used for oral administration. The evaluation was carried out in each case after the end of the above-mentioned time interval, calculated from the administration of the active compound.
The LD50 values (dose of active compound at which 50% of the treated animals were killed) were determined in the usual manner from the mortality figures of the doses, which were varied in geometrical progression.

Drosophila melanogaster = test: Drosophila test; type: in vivo; conditions: 24 h, after 1 day, read-out: Degree of destruction in % after 1 day; for mortality at 0.001 % strength: 0.001% by weight active compound; for mortality at 0.01 % strength: 0.01% by weight active compound
Description: Solvent: 3 parts by weight of dimethylformamide
as §2
To produce a suitable preparation of active compound, 1 part by weight of the active compound was mixed with the stated amount of solvent containing the stated amount of emulsifier, and the concentrate was diluted with water to the desired concentration.
1 cm^3 of the preparation of the active compound was applied with a pipette to a filter paper disc of 7 cm diameter. The wet disc was placed over the orifice of a glass vessel containing 50 vinegar flies (Drosophila melanogaster) and covered with a glass plate.
After the specified periods of time, the destruction was determined in %. 100% means that all the flies were killed; 0% means that no flies were killed.

insects and acarids = conditions: in vivo; cited from earlier work
Phaedon cochleariae = test: Phaedon larvae test (long-term action after spraying); type: in vivo; conditions: 0.05% active compound, Brassica oleracea
Description: as §1, §2, §3, §4
After the specified periods of time, the plants were infested with mustard beetle larvae (Phaedon cochleariae). After intervals of 3 days, the destruction in % was determined. 100% means that all beetle larvae had been killed whereas 0% means that none of the beetle larvae had been killed.

Lucilia cuprina = test: Test with parasitic fly larvae; type: in vivo; conditions: 24 hours, Lucilia cuprina res., read-out: Degree of destruction in %
Description: Solvent: 35 parts by weight of ethylene polyglycol monomethyl ether
35 parts by weight of nonylphenol polyglycol ether
To produce a suitable preparation of active compound, 30 parts by weight of the active substance in question were mixed with the stated amount of solvent which contained the abovementioned proportion of emulsifier and the concentrate thus obtained was diluted with water to the desired concentration.
About 20 fly larvae (Lucilia cuprina) were introduced into a test tube which contains approximately 2 cm^3 of horse muscle. 0.5 ml of the preparation of active compound was applied to this horse meat. After 24 hours, the degree of destruction in % was determined. 100% means that all larvae had been killed and 0% means that no larvae had been killed.

[1] = 96 h, 4 days, read-out: % destruction after 4 days
[2] = 192 h, 8 days, read-out: % destruction after 8 days
[3] = 0.001% by weight active compound
[4] = 0.01% by weight active compound

## CCOC(=O)C=C(OP(=S)(OCC)OCC)c1ccc([N+](=O)[O-])cc1 [drawing 23]
Myzus persicae; [1]
  mortality at 0.05 % strength: 50%
Myzus persicae; [2]
  mortality at 0.05 % strength: 0%

## CCOC(=O)C=C(OP(=S)(OCC)OCC)c1cccc([N+](=O)[O-])c1 [drawing 14]
Laphygma exigua; [3]
  Degree of destruction in % after 3 days: 100%
Laphygma exigua; [4]
  Degree of destruction in % after 3 days: 100%

## CCCOP(=S)(OCC)OC(=CC(=O)OCC)c1cccc([N+](=O)[O-])c1 (stereo not drawn)
Toxicity test/peroral
  LD50 at 168 h: 50 to 100 mg/kg

## CCOC(=O)C=C(OP(=S)(OCC)OCC)c1ccc([N+](=O)[O-])cc1 [drawing 26, reference compound]
Toxicity test/peroral
  LD50 at 168 h: 10 to 25 mg/kg

## CCCOP(=S)(OCC)OC(=CC(=O)OC(C)C)c1cccc([N+](=O)[O-])c1 (stereo not drawn)
Drosophila melanogaster
  mortality at 0.001 % strength: 98%
  mortality at 0.01 % strength: 100%

## CCOC(=O)C=C(OP(=S)(OCC)c1ccccc1)c1cccc([N+](=O)[O-])c1 (stereo not drawn)
Toxicity test/peroral
  LD50 at 168 h: 50 to 100 mg/kg

## CCOP(=S)(OCC)OC(=CC(=O)OC(C)C)c1cccc([N+](=O)[O-])c1 [drawing 19]
Laphygma exigua; [3]
  Degree of destruction in % after 3 days: 100%
Laphygma exigua; [4]
  Degree of destruction in % after 3 days: 100%

## CCOC(=O)C=C(OP(=S)(OCC)OCC)c1cccc([N+](=O)[O-])c1 [drawing 9]
Drosophila melanogaster
  mortality at 0.001 % strength: 99%
  mortality at 0.01 % strength: 100%

## CCOP(=S)(OCC)OC(=CC(=O)OC(C)C)c1cccc([N+](=O)[O-])c1 [drawing 10]
Drosophila melanogaster
  mortality at 0.001 % strength: 100%
  mortality at 0.01 % strength: 100%

## CCOC(=O)C=C(OP(=S)(OC)OC)c1ccc([N+](=O)[O-])cc1 [drawing 12, reference compound]
Laphygma exigua; [3]
  Degree of destruction in % after 3 days: 0%
Laphygma exigua; [4]
  Degree of destruction in % after 3 days: 100%

## CCOC(=O)C=C(OP(=S)(OC)OC)c1ccc([N+](=O)[O-])cc1 [Compound A, O,O-dimethyl-O-[1-(4-nitrophenyl)-2-carbethoxyvinyl]-thionophosphoric acid ester]
Insects and acarids
  insecticidal and acaricidal properties: possess insecticidal and acaricidal properties

## CCOC(=O)C=C(OP(=S)(OC)OC)c1ccc([N+](=O)[O-])cc1 [drawing 8, reference compound]
Drosophila melanogaster
  mortality at 0.001 % strength: 0%
  mortality at 0.01 % strength: 100%

## CCOC(=O)C=C(OP(=S)(OCC)OCC)c1ccc([N+](=O)[O-])cc1 [Compound B, O,O-diethyl-O-[1-(4-nitrophenyl)-2-carbethoxyvinyl]-thionophosphoric acid ester]
Insects and acarids
  insecticidal and acaricidal properties: possess insecticidal and acaricidal properties

## CCOC(=O)C=C(OP(=S)(OCC)OCC)c1ccc([N+](=O)[O-])cc1 [drawing 20]
Phaedon cochleariae; [1]
  mortality at 0.05 % strength: 100%
Phaedon cochleariae; [2]
  mortality at 0.05 % strength: 100%
Phaedon cochleariae; 264 h, 11 days, read-out: % destruction after 11 days
  mortality at 0.05 % strength: 50%
Phaedon cochleariae; 360 h, 15 days, read-out: % destruction after 15 days
  mortality at 0.05 % strength: 0%

## CCOC(=O)C=C(OP(=S)(OCC)OCC)c1ccc([N+](=O)[O-])cc1 [drawing 31]
Lucilia cuprina
  mortality at 10 ppm: > 50%
  mortality at 100 ppm: 100%

## CCCSP(=S)(OCC)OC(=CC(=O)OCC)c1cccc([N+](=O)[O-])c1 (stereo not drawn) [drawing 27]
Toxicity test/peroral
  LD50 at 168 h: 100 to 250 mg/kg

## CCCSP(=S)(OCC)OC(=CC(=O)OCC)c1cccc([N+](=O)[O-])c1 (stereo not drawn) [drawing 30]
Lucilia cuprina
  mortality at 10 ppm: 100%
  mortality at 100 ppm: 100%
Lucilia cuprina; 30 ppm
  mortality at 30 ppm: 100%

## CCOC(=O)C=C(OP(=S)(OC)OC)c1cccc([N+](=O)[O-])c1
Laphygma exigua; [3]
  Degree of destruction in % after 3 days: 85%
Laphygma exigua; [4]
  Degree of destruction in % after 3 days: 100%
